{"source": "ChEMBL document CHEMBL1136202", "about": "“Imidazo[1,2-a]pyridines: a potent and selective class of cyclin-dependent kinase inhibitors identified through structure-based hybridisation” (Bioorg Med Chem Lett, 2003)", "key": {"[1]": {"molecular_target": "Cyclin-dependent kinase 2 (Homo sapiens, UniProt P24941)", "assay": "Inhibition of Cyclin-dependent kinase 2"}, "[2]": {"molecular_target": "Cyclin-dependent kinase 4 (Homo sapiens, UniProt P11802)", "sequence (P11802 whole entry)": "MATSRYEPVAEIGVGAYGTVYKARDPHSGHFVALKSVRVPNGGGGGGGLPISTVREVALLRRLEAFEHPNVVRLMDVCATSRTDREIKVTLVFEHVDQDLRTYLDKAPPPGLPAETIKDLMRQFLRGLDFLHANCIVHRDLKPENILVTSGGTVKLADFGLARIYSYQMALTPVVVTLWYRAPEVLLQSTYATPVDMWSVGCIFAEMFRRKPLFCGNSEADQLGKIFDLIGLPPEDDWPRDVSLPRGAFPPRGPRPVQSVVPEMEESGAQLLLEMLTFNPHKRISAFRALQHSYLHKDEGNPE", "assay": "Inhibition of Cyclin-dependent kinase 4"}}, "note": "pIC50: −log10 of the molar value.", "data": [{"smiles": "Cc1nc2ccccn2c1-c1ccnc(N)n1", "values": [{"measurement": "pIC50", "setting": "[1]", "result": 5.40}, {"measurement": "pIC50", "setting": "[2]", "result": 5.10}]}, {"smiles": "CN(C)CC(O)COc1ccc(Nc2nccc(Nc3ccccc3)n2)cc1", "note": "(stereo unspecified)", "values": [{"measurement": "pIC50", "setting": "[1]", "result": 4.49}]}, {"smiles": "Cc1nc2ccccn2c1-c1ccnc(NC(=O)C(F)(F)F)n1", "values": [{"measurement": "pIC50", "setting": "[1]", "result": 4.02}, {"measurement": "pIC50", "setting": "[2]", "result": 4.40}]}, {"smiles": "Cc1nc2ccccn2c1-c1ccnc(Nc2ccc(OCC(O)CN(C)C)cc2)n1", "note": "(stereo unspecified)", "values": [{"measurement": "pIC50", "setting": "[2]", "result": 6.82}]}, {"smiles": "Cc1ccc(F)c(Nc2ccnc(Nc3ccc(S(N)(=O)=O)cc3)n2)c1", "values": [{"measurement": "pIC50", "setting": "[1]", "result": 8.22}, {"measurement": "pIC50", "setting": "[2]", "result": 5.57}]}, {"smiles": "Cc1nc2ccccn2c1-c1ccnc(NC(=O)Nc2ccccc2)n1", "values": [{"measurement": "pIC50", "setting": "[1]", "result": "< 5.00"}, {"measurement": "pIC50", "setting": "[2]", "result": "< 5.00"}]}, {"smiles": "Cc1nc2ccccn2c1-c1ccnc(Nc2ccccc2)n1", "values": [{"measurement": "pIC50", "setting": "[1]", "result": 7.44}, {"measurement": "pIC50", "setting": "[2]", "result": 5.44}]}, {"smiles": "Cc1nc2ccccn2c1-c1ccnc(Nc2ccc(S(N)(=O)=O)cc2)n1", "values": [{"measurement": "pIC50", "setting": "[1]", "result": "> 8.52"}, {"measurement": "pIC50", "setting": "[2]", "result": 5.60}]}, {"smiles": "CC(=O)Nc1nccc(-c2c(C)nc3ccccn23)n1", "values": [{"measurement": "pIC50", "setting": "[1]", "result": 5.54}, {"measurement": "pIC50", "setting": "[2]", "result": 5.05}]}]}
